The text below walks through data of publication PMC7695835, “Pharmacological characterisation of novel adenosine A3 receptor antagonists” (Scientific Reports, 2020).

Experiment [1] addresses T1, A3R (Homo sapiens, UniProt P0DMS8).
T1 sequence (P0DMS8 1-318): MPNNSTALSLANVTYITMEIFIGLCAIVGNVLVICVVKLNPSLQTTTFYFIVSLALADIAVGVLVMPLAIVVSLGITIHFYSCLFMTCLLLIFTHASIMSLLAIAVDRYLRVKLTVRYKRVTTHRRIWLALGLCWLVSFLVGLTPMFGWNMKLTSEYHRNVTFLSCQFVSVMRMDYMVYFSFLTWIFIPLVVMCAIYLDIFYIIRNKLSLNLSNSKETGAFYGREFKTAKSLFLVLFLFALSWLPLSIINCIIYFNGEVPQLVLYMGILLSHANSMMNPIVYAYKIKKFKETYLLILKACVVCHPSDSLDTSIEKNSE
The note with it: 1 nM [3H]HEMADO; ref Lagarias et al.[19]; read-out: Radioligand binding Ki A3R; cited from earlier work.

In experiment [2] the target is T1, A3R. The conditions noted are these: for cAMP accumulation Mean: 10 μM forskolin + NECA IC80 (3.16 nM) + 1 μM compound, mean ± SEM, n = 3; for cAMP accumulation Mean difference between 'NECA' and compound: 10 μM forskolin + NECA IC80 + 1 μM compound; for outcome of cAMP-based screen: 1 μM compound. On the technique in general: Changes in cAMP serve as a functional read-out for many G protein-coupled receptors.

Experiment [3] concerns the target T2, A2AR (Homo sapiens, UniProt P29274).
T2 construct: expressed in transfected cells; host or cells: CHO cells, membrane preparation
On the set-up: method as in Lagarias et al.[19]. The conditions noted are these: 10 nM [3H]NECA; ref Lagarias et al.[19]; read-out: Radioligand binding Ki A2AR; cited from earlier work.

Experiment [4] has as its target T3, A1R (Homo sapiens, UniProt P30542).
T3 construct: expressed in transfected cells
T3 sequence (P30542 1-326): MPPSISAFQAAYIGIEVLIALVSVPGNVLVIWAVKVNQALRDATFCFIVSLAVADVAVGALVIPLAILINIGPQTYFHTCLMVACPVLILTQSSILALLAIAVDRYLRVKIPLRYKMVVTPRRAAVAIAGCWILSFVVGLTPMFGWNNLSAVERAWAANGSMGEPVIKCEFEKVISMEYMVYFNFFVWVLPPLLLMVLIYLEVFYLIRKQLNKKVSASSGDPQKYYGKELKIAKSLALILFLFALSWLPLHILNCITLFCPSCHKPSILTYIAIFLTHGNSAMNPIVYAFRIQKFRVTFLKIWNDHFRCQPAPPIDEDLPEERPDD
On the set-up: method as in Lagarias et al.[19]. The conditions noted are these: 1 nM [3H]CCPA; ref Lagarias et al.[19]; read-out: Radioligand binding Ki A1R; cited from earlier work.

Experiment [5] addresses T1, A3R. The experiment can be described thus: NECA stimulated cAMP inhibition in A3R Flp-In CHO cells. It is filed as cell-based. The conditions noted are these: for Span: difference between Emin and basal; for Emin: lower plateau of NECA curve; for effect on NECA potency / antagonism: 1 μM compound; for effect on NECA potency / antagonism / effect on NECA potency: preliminary data; for Basal: upper plateau of NECA curve; for effect on NECA potency: 10 μM compound.

Where [6] appears, read: 1 µM compound + 10 µM forskolin only.
[7] abbreviates: 10 µM compound + 10 µM forskolin only.

The Ki is the equilibrium dissociation constant of an inhibitor or competing ligand from its target.

T2 sequence (P29274 whole entry): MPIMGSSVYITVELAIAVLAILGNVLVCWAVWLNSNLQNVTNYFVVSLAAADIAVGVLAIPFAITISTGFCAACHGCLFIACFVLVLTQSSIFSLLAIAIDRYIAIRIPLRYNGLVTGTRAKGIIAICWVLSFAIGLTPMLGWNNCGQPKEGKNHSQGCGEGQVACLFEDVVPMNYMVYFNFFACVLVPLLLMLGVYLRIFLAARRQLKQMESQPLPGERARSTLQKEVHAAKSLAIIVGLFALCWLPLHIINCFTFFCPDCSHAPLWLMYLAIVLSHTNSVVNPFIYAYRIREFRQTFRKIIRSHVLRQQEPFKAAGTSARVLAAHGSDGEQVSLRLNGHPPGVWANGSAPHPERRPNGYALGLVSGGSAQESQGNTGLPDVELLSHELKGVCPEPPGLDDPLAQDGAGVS

In the case of `COc1ccc(CSC(=N)Nc2ccccc2Cl)cc1.Cl` [Compound K2], the inhibition constant (Ki) in experiment [1] was 16.6 µM; in experiment [3], 61.3 µM; in experiment [4] it was greater than 100 µM. Moreover, the “cAMP accumulation Mean” value in experiment [2] is recorded as 68.28 ±2.94 %10 μM forskolin response. The “cAMP accumulation Mean difference between 'NECA' and compound” value in experiment [2] is given as -7.96 %10 μM forskolin response.

Turning to `NC(=NOC(=O)c1csnn1)c1ccc(-c2csnn2)cc1` [Compound K3], the Ki in experiment [1], in experiment [3] and in experiment [4] was greater than 100 µM each time. Besides, the “cAMP accumulation Mean” value in experiment [2] was found to be 63.37 ±2.66 %10 μM forskolin response. Also, the “cAMP accumulation Mean difference between 'NECA' and compound” value in experiment [2] was -3.05 %10 μM forskolin response.

As for `NC(=NNC(=O)Nc1ccc(Cl)cc1)c1ccc(C(F)(F)F)cn1` [Compound K4], the Ki in experiment [1], in experiment [3] and in experiment [4] was greater than 100 µM each time. For the same compound, in experiment [2], the “cAMP accumulation Mean” value is on record as 59.06 ±0.13 %10 μM forskolin response. For the same compound, the “cAMP accumulation Mean difference between 'NECA' and compound” value in experiment [2] was found to be 1.26 %10 μM forskolin response.

Consider `Cc1nc(C(N)=NOC(=O)c2c(-c3ccccc3)noc2C)cs1` [Compound K5], for which the Ki in experiment [3] was 21.8 µM; in experiment [4], greater than 100 µM.

As to `O=C(Nc1ccc(OC(F)(F)F)cc1)Nc1cc(-c2cccs2)n[nH]1` [Compound K6], the inhibition constant Ki in experiment [1] is 30.6 µM; in experiment [3], greater than 100 µM; in experiment [4], greater than 100 µM. In experiment [2], the “cAMP accumulation Mean” value is on record as 64.01 ±5.22 %10 μM forskolin response. For the same compound, the “cAMP accumulation Mean difference between 'NECA' and compound” value in experiment [2] is -3.69 %10 μM forskolin response.

For `Cc1onc(-c2ccccc2Cl)c1C(=O)O/N=C(\N)c1ccc(I)cc1` [Compound K9], the inhibition constant Ki is greater than 100 µM in experiment [3] and 6.91 µM in experiment [4].

As to `Cc1onc(-c2ccccc2Cl)c1C(=O)O/N=C(\N)c1ccncc1` [Compound K11], the figures for the inhibition constant Ki in experiment [3] and in experiment [4] were 30 µM and greater than 60 µM, respectively.

For `Nc1sccc1C(=O)NCCc1ccccc1` [Compound K12], the inhibition constant (Ki) in experiment [1] was 37.1 µM; in experiment [3], greater than 60 µM; in experiment [4] it was greater than 100 µM. In experiment [2], the “cAMP accumulation Mean” value was determined as 59.66 ±0.98 %10 μM forskolin response. Besides, the “cAMP accumulation Mean difference between 'NECA' and compound” value in experiment [2] is on record as 0.66 %10 μM forskolin response.

Regarding `COc1ccc(CCNC(=O)c2c(N)sc3c2CCC3)cc1OC` [Compound K13], the Ki is 16.5 µM in experiment [1], greater than 60 µM in experiment [3] and greater than 30 µM in experiment [4]. Also, the “cAMP accumulation Mean” value in experiment [2] came out at 56.25 ±1.44 %10 μM forskolin response. Moreover, in experiment [2], the “cAMP accumulation Mean difference between 'NECA' and compound” value amounted to 4.07 %10 μM forskolin response.

As for `COc1ccc(CCNC(=O)c2c(N)sc3c2CCCC3)cc1OC` [Compound K14], the results for the Ki in experiment [1], in experiment [3] and in experiment [4] were 14.8 µM, greater than 60 µM and greater than 30 µM, respectively. For the same compound, the “cAMP accumulation Mean” value in experiment [2] is 61.09 ±3.04 %10 μM forskolin response. Further, the “cAMP accumulation Mean difference between 'NECA' and compound” value in experiment [2] was -0.77 %10 μM forskolin response.

Consider `Cc1cccc(/C(N)=N/OC(=O)c2c(-c3ccccc3Cl)noc2C)c1` [Compound K15], for which the Ki in experiment [3] and in experiment [4] was greater than 100 µM each time.

As to `NNC(=O)c1sc(-c2ccccc2)cc1N` [Compound K16], the inhibition constant (Ki) is 19.7 µM in experiment [1], 31.7 µM in experiment [3] and greater than 30 µM in experiment [4]. In addition, in experiment [2], the “cAMP accumulation Mean” value was found to be 51.51 ±4.91 %10 μM forskolin response. Moreover, the “cAMP accumulation Mean difference between 'NECA' and compound” value in experiment [2] was found to be 8.81 %10 μM forskolin response.

Consider `COc1ccccc1N=C(N)SCc1ccccc1` [Compound K19], for which the inhibition constant (Ki) in experiment [1], in experiment [3] and in experiment [4] was greater than 100 µM in each case. Also, the “cAMP accumulation Mean” value in experiment [2] was 64.58 ±4.94 %10 μM forskolin response. Besides, the “cAMP accumulation Mean difference between 'NECA' and compound” value in experiment [2] is listed as -4.26 %10 μM forskolin response.

On to `COc1cccc(C=NNC(=O)c2cc(-c3ccccc3)sc2N)c1` [Compound K21], for which the “True Basal” value in experiment [5] (setting [6]) turned out to be 101.6 ±5.1. Besides, in experiment [5] (1 µM compound), the Span stood at 119.4 ±9.4; the Emin is recorded as 2.0 ±7.6 % 10 µM forskolin response relative to NECA response; the Basal is given as 121.5 ±6.1 % 10 µM forskolin inhibition, relative to NECA. Also, in experiment [5], the “effect on NECA potency / antagonism” value was “no effect” and the “effect on NECA potency” value is reported as “reduce the NECA potency”. In addition, the “True Basal” value in experiment [5] (setting [7]) amounted to 118.6 ±4.8. Further, in experiment [5] (10 µM compound), the Span came to 104.6 ±7.7; the Emin was 30.1 ±6.8 % 10 µM forskolin response relative to NECA response; the Basal is reported as 134.7 ±4.3 % 10 µM forskolin inhibition, relative to NECA. Further, in experiment [1], the Ki is 5.77 µM. Further, in experiment [2], the “outcome of cAMP-based screen” value is “no activity”; the “cAMP accumulation Mean” value was found to be 73.54 ±2.98 %10 μM forskolin response; the “cAMP accumulation Mean difference between 'NECA' and compound” value is given as -13.22 %10 μM forskolin response. Also, the inhibition constant Ki in experiment [3] was 3.93 µM. Also, in experiment [4], the Ki is greater than 100 µM.

For `Nc1sc(-c2ccccc2)cc1C(=O)NN=Cc1ccccc1` [Compound K22], in experiment [5] (setting [6]), the “True Basal” value turned out to be 101.9 ±8.4. Also, in experiment [5] (1 µM compound), the Span is listed as 120.9 ±8.8; the Emin was 0.4 ±7.1 % 10 µM forskolin response relative to NECA response; the Basal was 121.3 ±5.8 % 10 µM forskolin inhibition, relative to NECA. In experiment [5], the “effect on NECA potency / antagonism” value was “no effect” and the “effect on NECA potency” value is listed as “reduce the NECA potency”. The “True Basal” value in experiment [5] (setting [7]) amounted to 124.5 ±8.2. Also, in experiment [5] (10 µM compound), the Span came out at 97.5 ±8.0; the Emin is listed as 41.6 ±7.1 % 10 µM forskolin response relative to NECA response; the Basal is 139.1 ±4.2 % 10 µM forskolin inhibition, relative to NECA. Further, the Ki in experiment [1] is 5.16 µM. In experiment [2], the “outcome of cAMP-based screen” value is “no activity”; the “cAMP accumulation Mean” value is 70.56 ±3.64 %10 μM forskolin response; the “cAMP accumulation Mean difference between 'NECA' and compound” value is recorded as -10.24 %10 μM forskolin response. Further, the Ki in experiment [3] is 4.59 µM. For the same compound, the Ki in experiment [4] is 15.2 µM.

For `CC(C)(C)c1ccc(/C(N)=N/OC(=O)c2cnn(-c3ccccc3)c2C(F)(F)F)cc1` [Compound K24], the “True Basal” value in experiment [5] (setting [6]) was found to be 103.6 ±7.7. Further, in experiment [5] (1 µM compound), the Span was 103.7 ±7.9; the Emin is reported as 5.9 ±6.5 % 10 µM forskolin response relative to NECA response; the Basal is given as 109.5 ±4.9 % 10 µM forskolin inhibition, relative to NECA. For the same compound, in experiment [5], the “effect on NECA potency / antagonism” value is “no effect” and the “effect on NECA potency” value was “reduce the NECA potency”. Besides, the “True Basal” value in experiment [5] (setting [7]) is on record as 117.7 ±0.9. In experiment [5] (10 µM compound), the Span stood at 107.4 ±5.7; the Emin was 23.4 ±4.5 % 10 µM forskolin response relative to NECA response; the Basal is 130.8 ±3.3 % 10 µM forskolin inhibition, relative to NECA. Also, the Ki in experiment [1] was 5.39 µM. Further, in experiment [2], the “outcome of cAMP-based screen” value is “no activity”; the “cAMP accumulation Mean” value is 51.39 ±3.11 %10 μM forskolin response; the “cAMP accumulation Mean difference between 'NECA' and compound” value is listed as 8.93 %10 μM forskolin response. For the same compound, in experiment [3], the inhibition constant Ki is greater than 100 µM. Further, the inhibitory constant (Ki) in experiment [4] is 7.48 µM.

On to `CCOC(=O)CC(=O)Nc1ccsc1C(N)=O` [Compound K28], for which the inhibitory constant (Ki) was greater than 100 µM in experiment [1], 30 µM in experiment [3] and 18 µM in experiment [4]. In experiment [2], the “cAMP accumulation Mean” value came out at 64.14 ±1.73 %10 μM forskolin response. The “cAMP accumulation Mean difference between 'NECA' and compound” value in experiment [2] was -3.82 %10 μM forskolin response.

`CCC(C)CC(=O)Nc1ccsc1C(N)=O` (stereo not drawn) [Compound K35]: the inhibition constant Ki in experiment [1] is 27.4 µM; in experiment [3] it was greater than 30 µM; in experiment [4] it was 7.33 µM. Also, the “cAMP accumulation Mean” value in experiment [2] came out at 71.56 ±3.54 %10 μM forskolin response. The “cAMP accumulation Mean difference between 'NECA' and compound” value in experiment [2] is -11.24 %10 μM forskolin response.
